The source of these data is US10196382B2, “bis-Pyridazine compounds and their use in treating cancer” (AstraZeneca AB, priority 2015, dated 2019).

Assay [1] concerns cellular GLS activity in PC3 cells. Briefly: GLS Cell Potency Assay (PC3 coupled assay measuring cellular glutamate depletion). The format is cell-based. The settings on record: Homo sapiens, PC-3; PC3 cells, 6 h incubation, cellular glutamate depletion; read-out: Assay b) GLS Cell Potency Assay IC50. The text has this: (§1) The following assays were used to measure the effects of the compounds of the present invention: a) GLS Enzyme Potency Assay; b) GLS Cell Potency Assay; c) GLS Cell Proliferation Assay. During the description of the assays, generally: • i. The following abbreviations have been used: CO2=Carbon dioxide; DMEM=Dulbecco's Modified Eagle Medium; DMSO=Dimethyl sulphoxide; EDTA=Ethylenediaminetetraacetic acid; EGTA=Ethylene glycol tetraacetic acid; FCS=Foetal calf serum; h=Hour(s); NBS=Non-binding surface; SDS=Sodium dodecyl sulphate; TRIS=Tris(Hydroxymethyl)aminomethane. • ii. IC50 values were calculated using a smart fitting model in Genedata. […] Assay a): GLS Enzyme Potency Assay
Compounds were assessed for their potential to inhibit cellular GLS activity by use of a PC3 coupled assay measuring cellular glutamate depletion. […] DMSO concentration was maintained at 0.3% by back filling with DMSO solution. PC3 cells were grown in phenol free DMEM, 10% dialyzed FCS, 2 mM glutamine and following dispersal by trypsinisation were plated at 5.6×10^3 cells per well in 40 μl of growth medium directly into the 384 well assay plates containing dispensed compound. After incubation for 6 h at 37° C., 5% CO2 growth media was aspirated and cells lysed in 15 μl of buffer containing 10 mM TRIS pH7.4, 100 mM NaCl, 1 mM EDTA, 1 mM EGTA, 1 mM NaF, 20 mM Na4P2O7, 2 mM Na3VO4, 1% Triton X-100, 10% glycerol, 0.1% SDS and 0.5% deoxycholate.

A further assay concerns NCI-H1703 cells. Briefly: GLS Cell Proliferation Assay (NCI-H1703). The assay is classed as cell-based. The following applies: Homo sapiens, 120 h; NCI-H1703 cells, 5 days incubation, Sytox Green; read-out: Assay c) GLS Cell Proliferation Assay.
Source text: as §1
The ability of compounds to inhibit cell growth was measured using a 384 well plate NCI-H1703 cell proliferation assay. […] DMSO concentration was maintained at 0.3% by back filling with DMSO solution. Plates were incubated for 5 days at 37° C., 5% CO2, Sytox Green and Saponin added to final concentration of 2 μM and 0.25% respectively and incubated for 6 h prior to analysis. […] IC50 values were calculated by curve fitting to max inhibition of day zero growth using GeneData software analysis.

In the next assay the target is GLS1 (Homo sapiens (Human), UniProt O94925). Briefly: GLS Enzyme Potency Assay (Glutamate Oxidase/AmplexRed coupled assay). The format is biochemical. The settings on record: 6His tagged GLS protein (amino acids 63-669), 60 minutes reaction with glutamine. The text has this:
The following assays were used to measure the effects of the compounds of the present invention: a) GLS Enzyme Potency Assay; b) GLS Cell Potency Assay; c) GLS Cell Proliferation Assay. During the description of the assays, generally: • i. The following abbreviations have been used: CO2=Carbon dioxide; DMEM=Dulbecco's Modified Eagle Medium; DMSO=Dimethyl sulphoxide; EDTA=Ethylenediaminetetraacetic acid; EGTA=Ethylene glycol tetraacetic acid; FCS=Foetal calf serum; h=Hour(s); NBS=Non-binding surface; SDS=Sodium dodecyl sulphate; TRIS=Tris(Hydroxymethyl)aminomethane. • ii. IC50 values were calculated using a smart fitting model in Genedata. The IC50 value was the concentration of test compound that inhibited 50% of biological activity. Assay a): GLS Enzyme Potency Assay
A Glutamate Oxidase/AmplexRed coupled assay was used to measure the ability of compounds to bind to and inhibit the activity of GLS1 in vitro. 6His tagged GLS protein (amino acids 63-669) expressed in E. Coli was purified and stored at −80° C. in aliquots. GLS1 was diluted to 2×working concentration and incubated at r.t. to allow the tetrameric/dimeric forms to reach steady state. Assay measurements were performed in buffer comprising 50 mM TRIS pH 7.8, 100 mM NaPO4, pH 7.8, 0.001% v/v Tween20. Purified recombinant GLS1 protein was diluted in assay buffer to 12 nM and pre-incubated at r.t. for 30 minutes. Test compounds were prepared by dilution in 100% DMSO to give the correct dose range for 12 point concentration response and an appropriate volume (2.5-60 nl) dispensed into 384 well micro assay plates (Greiner product code 784900) using a Labcyte Echo 555 acoustic dispenser. DMSO concentration was maintained at 2% by back filling with DMSO solution. 3 μL of diluted GLS1 protein (12 nM) was then dispensed into each well using a BioRaptr automated dispenser (Beckman-Coulter) and incubated for 15 minutes at r.t. 3 μl of 100 mM glutamine diluted in assay buffer was then added and the reaction incubated at r.t. for 60 minutes. The reaction was then stopped by addition of 45 μM 6-(2-bromoethynyl)-2,3-dimethyl-quinazolin-4-one, 75 μM Amplex Red, 0.375 units/mL Horseradish Peroxidase, 0.12 units/mL Glutamate Oxidase in 100 mM TRIS pH7.5. After 30 minutes at room temp in the dark, plates were read on a Perkin Elmer EnVision using 535/590 nm optic filters and raw data analysed using Genedata to generate IC50 values. An artefact version of the assay where the 6His tagged GLS protein and glutamine were replaced with assay buffer was also used to rule out non specific effects on the assay components.

Sequence of GLS1 (O94925 63-669): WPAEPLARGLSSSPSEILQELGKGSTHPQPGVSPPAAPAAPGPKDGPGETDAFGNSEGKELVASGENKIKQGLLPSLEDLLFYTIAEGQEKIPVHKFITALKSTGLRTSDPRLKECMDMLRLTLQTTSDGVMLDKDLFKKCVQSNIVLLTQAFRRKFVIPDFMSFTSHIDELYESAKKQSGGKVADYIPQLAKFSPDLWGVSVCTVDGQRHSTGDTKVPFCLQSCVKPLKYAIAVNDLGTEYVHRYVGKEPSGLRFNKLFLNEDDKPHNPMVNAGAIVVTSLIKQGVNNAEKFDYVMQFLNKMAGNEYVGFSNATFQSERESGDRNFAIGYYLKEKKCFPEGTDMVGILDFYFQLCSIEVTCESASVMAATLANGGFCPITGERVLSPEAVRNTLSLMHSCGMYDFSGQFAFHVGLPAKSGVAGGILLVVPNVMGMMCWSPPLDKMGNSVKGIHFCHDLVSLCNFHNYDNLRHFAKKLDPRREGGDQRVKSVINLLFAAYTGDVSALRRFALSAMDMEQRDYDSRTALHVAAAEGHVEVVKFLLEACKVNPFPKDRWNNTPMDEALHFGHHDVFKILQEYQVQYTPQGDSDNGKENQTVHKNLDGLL

Consider `CO[C@H](C(=O)Nc1ccc(N2CC[C@@H](Nc3cccnn3)C2)nn1)c1cccc(OC(F)F)c1` [Example 1, (2S)-2-[3-(Difluoromethoxy)phenyl]-2-methoxy-N-[6-[(3R)-3-(pyridazin-3-ylamino)pyrrolidin-1-yl]pyridazin-3-yl]acetamide], for which the values for the IC50 (in assay [1]; in the assay on NCI-H1703 cells; on GLS1) were 1 nM, 9 nM and 24.7 nM, respectively.

For `CO[C@H](C(=O)Nc1ccc(N2CC[C@@H](Nc3cccnn3)C2)nn1)c1cccc(OC(F)(F)F)c1` [Example 2, (2S)-2-[3-(Trifluoromethoxy)phenyl]-2-methoxy-N-[6-[(3R)-3-(pyridazin-3-ylamino)pyrrolidin-1-yl]pyridazin-3-yl]acetamide], the results for the IC50 (in assay [1]; in the assay with NCI-H1703 cells; against GLS1) were 1 nM, 11 nM and 95.7 nM, respectively.

For the molecule `COc1cccc([C@H](OC)C(=O)Nc2ccc(N3CC[C@@H](Nc4cccnn4)C3)nn2)c1` [Example 3, (2S)-2-Methoxy-2-(3-methoxyphenyl)-N-[6-[(3R)-3-(pyridazin-3-ylamino)pyrrolidin-1-yl]pyridazin-3-yl]acetamide], the IC50 in assay [1] was 1 nM; with NCI-H1703 cells it was 3 nM; at GLS1, 29.8 nM.

For `COc1ccccc1CC(=O)Nc1ccc(N2CC[C@@H](Nc3cccnn3)C2)nn1` [Example 4, 2-(2-Methoxyphenyl)-N-[6-[(3R)-3-(pyridazin-3-ylamino)pyrrolidin-1-yl]pyridazin-3-yl]acetamide], the IC50 worked out at 7 nM in assay [1], 43 nM in the assay with NCI-H1703 cells and 30.9 nM at GLS1.

For `O=C(Cc1ccccc1C(F)(F)F)Nc1ccc(N2CC[C@@H](Nc3cccnn3)C2)nn1` [Example 5, N-[6-[(3R)-3-(Pyridazin-3-ylamino)pyrrolidin-1-yl]pyridazin-3-yl]-2-[2-(trifluoromethyl)phenyl]acetamide], the IC50 in assay [1] amounted to 1 nM; in the assay on NCI-H1703 cells, 3 nM; against GLS1 it was 30.6 nM.

Consider `O=C(Cc1ccccc1OC(F)(F)F)Nc1ccc(N2CC[C@@H](Nc3cccnn3)C2)nn1` [Example 6, N-[6-[(3R)-3-(Pyridazin-3-ylamino)pyrrolidin-1-yl]pyridazin-3-yl]-2-[2-(trifluoromethoxy)phenyl]acetamide], for which the IC50 in assay [1] worked out at 1 nM; in the assay on NCI-H1703 cells it was 12 nM; against GLS1, 25.2 nM.
